Data from paper PMC3506268, “Microneedle pretreatment enhances the percutaneous permeation of hydrophilic compounds with high melting points” (BMC Pharmacology & Toxicology, 2012).
Like-named read-outs stand apart in the source and are kept apart here.

Tests used:
[1] = parameters: method as in earlier work; details: cited from earlier work
in vitro = details: for Jmax: 80% saturated solution in PBS, 6 h; for Jmax / Papp at 6 h / recovery: mean, n = 5–6; for Papp at 6 h / recovery: female, Holstein Friesian, bovine; for Papp at 6 h: 10^-6 Papp
Procedure: The skin was obtained from bovine udders, all of which were harvested from Holstein Friesian cows which died at a slaughterhouse for food production, and the cleaned skin samples were stored at - 20°C until use. After thawing at room temperature split skin samples with a thickness of 600 μm ± 50 μm were produced using an electrical microtome (Zimmer, Eschbach, Germany), whereby damaged skin samples were excluded from the study.
Prior to the experiment split skin samples with appropriate size of 2 x 2 cm were incubated in phosphate buffered saline (PBS) for 30 minutes. They were placed on a styropor panel and fixed with needles beyond the subsequent diffusion area of the skin samples before the microneedle rollers were rolled in four axes radial over the skin surface (Figure 1 C).
The diffusion experiments were performed in Franz-type diffusion cells obtained from PermeGear (Riegelsville, PA, USA) with a receptor chamber of approximately 12 ml and a diffusion area of approximately 1.77 cm². Sonicated PBS was used as receptor fluid. […] The donor chambers were covered with parafilm® (American Can Company, Baltimore, USA) and were checked for precipitation of the compounds during the whole experiment. Aliquots were taken from the receptor fluid and replaced by the same amount of fresh PBS at 0, 0.5, 1, 2, 4, and 6 hours. Each treatment (untreated control, 200 μm microneedle, and 300 μm microneedle) was performed in duplicate per animal (n = 6).
The receptor fluid samples (100 μl) were analysed by high-performance liquid-chromatography, the methodology of which has derived from recent studies. […] The separation took place on a reversed phase column (LiChroCART 125–4, LiChrospher 100 RP-18e, 5 μm (Merck, Darmstadt, Germany)), which was maintained at 40°C.
The linear part of the gradient of the permeation curve (time vs. concentration in the receptor fluid) represents the maximum flux Jmax (μg/cm²/h) and is employed to calculate the apparent permeability coefficient Papp (cm/s) according to Niedorf et al. 2008 [23]. Differences between control samples and pretreated skin samples were evaluated by Friedman test followed by Dunn´s multiple comparison test (GraphPad Prism 4.01 (GraphPad Software Inc., San Diego, USA). A 0.05 significance level was adopted.

[2] = parameters: method as in PMID 20624460; details: microneedle treated skin, in vitro; cited from earlier work
[3] = 200 μm microneedle pretreatment
[4] = 300 μm microneedle pretreatment
[5] = 300 μm microneedle pretreatment, * = p<0.05 versus control

**Q.** For `O=C(O)Cc1ccccc1Nc1c(Cl)cccc1Cl` [Diclofenac], which logKo/w [1] is on record?
**A.** 0.7

**Q.** And the logKo/w ([1]; listed as diclofenac)?
**A.** < 1

**Q.** What about the Jmax (in vitro; [3]) of the same molecule?
**A.** 8.75 μg/cm²/h

**Q.** What about the “Increase of maximum flux (Jmax) and Papp-value versus untreated skin” value (shortened to “Increase of maximum flux”) (in vitro; [4]) of the same molecule?
**A.** ≤ 7 fold

**Q.** And the Jmax (in vitro; [4])?
**A.** 11.55 μg/cm²/h

**Q.** And the Papp at 6 h (in vitro; [5])?
**A.** 12.4 nm/s

**Q.** And the Papp at 6 h (in vitro; untreated control skin)?
**A.** 1.8 nm/s

**Q.** What about the recovery (in vitro; [3]) of the same molecule?
**A.** 3.17%

**Q.** What about the recovery (in vitro; [4]) of the same molecule?
**A.** 3.54%

**Q.** What about the recovery (in vitro; untreated control skin) of the same molecule?
**A.** 0.49%

**Q.** And the Jmax (in vitro; untreated control skin)?
**A.** 1.72 μg/cm²/h

**Q.** With `CC(C)Cc1ccc(C(C)C(=O)O)cc1` (stereo not drawn) [Ibuprofen, ibuprofen] as the molecule, how does the “Higher flux through pretreated skin compared to untreated skin” value (in vitro; [3]) read?
**A.** twofold

**Q.** And the “Higher flux through pretreated skin compared to untreated skin” value (in vitro; [4])?
**A.** threefold

**Q.** What about the “Increase of maximum flux” value (in vitro; [4]) of the same molecule?
**A.** up to 3 fold

**Q.** And the recovery (in vitro; [3])?
**A.** 11.2%

**Q.** What about the recovery (in vitro; [4]) of the same molecule?
**A.** 17.8%

**Q.** And the recovery (in vitro; untreated control skin)?
**A.** 6.76%

**Q.** For `CC(C(=O)O)c1cccc(C(=O)c2ccccc2)c1` (stereo not drawn) [Ketoprofen, ketoprofen], which “Higher flux through pretreated skin compared to untreated skin” value (in vitro; [3]) is on record?
**A.** twofold

**Q.** What about the Jmax (in vitro; [3]) of the same molecule?
**A.** 2.36 μg/cm²/h

**Q.** What about the “Higher flux through pretreated skin compared to untreated skin” value (in vitro; [4]) of the same molecule?
**A.** threefold

**Q.** And the “Increase of maximum flux” value (in vitro; [4])?
**A.** up to 3 fold

**Q.** What about the Jmax (in vitro; [4]) of the same molecule?
**A.** 2.99 μg/cm²/h

**Q.** And the Papp at 6 h (in vitro; [3])?
**A.** 2.8 nm/s

**Q.** What about the Papp at 6 h (in vitro; [5]) of the same molecule?
**A.** 3.5 nm/s

**Q.** What about the Papp at 6 h (in vitro; untreated control skin) of the same molecule?
**A.** 1.2 nm/s

**Q.** What about the recovery (in vitro; [3]) of the same molecule?
**A.** 0.76%

**Q.** What about the recovery (in vitro; [4]) of the same molecule?
**A.** 0.96%

**Q.** What about the recovery (in vitro; untreated control skin) of the same molecule?
**A.** 0.3%

**Q.** And the Jmax (in vitro; untreated control skin)?
**A.** 1.03 μg/cm²/h

**Q.** For `CC(=O)Oc1ccccc1C(=O)O` [acetylsalicylic acid], which Permeation enhancement [2] is on record?
**A.** up to 2 times
